Laboratory results as given in article PMC6155239, “Targeting PFKFB3 radiosensitizes cancer cells and suppresses homologous recombination” (Nature Communications, 2018).

What was measured:
PFKFB3 = PFKFB3 (Homo sapiens, UniProt Q16875); assay: ADP-Glo kinase activity assay, PFKFB3; type: biochemical
Method: The kinase activity of the bi-functional enzyme was quantified based on the production of ADP and F-2,6-P2 from ATP by ADP-GloTM Kinase Assay (Promega). The assay was performed in two steps; first, after the kinase reaction, an equal volume of ADP-GloTM Reagent was added to terminate the kinase reaction and deplete the remaining ATP. Second, the Kinase Detection Reagent was added to simultaneously convert ADP to ATP and allow the newly synthesized ATP to be measured using a luciferase/luciferin reaction. The light generated was measured using a luminescence counter (1450 MicroBeta TriLux). The assay was performed in white 384-well plates (OptiPlate, 6007299, PerkinElmer) by consecutive additions of a test compound solution (0.1 µL, serial diluted in DMSO from compound DMSO stock solution and dispensed by acoustic dispensing from UV-star 384-well plate 7360153, VWR), enzyme solution (5 µL) and substrate (fructose-6-phosphate (F6P) and adenosine-5′-triphosphate (ATP)) containing solution (5 µL). […] Four reference dose–response curves, one of them being the QC compound, were included and serial diluted as the test compounds. The final concentrations of all reagents per well were 50 mM Tris–HCl at pH 8.0, 10 mM MgCl2, 5 mM NaPi at pH 8.0, 81.48 nM PFKFB3 or 145 nM PFKFB4, 8 µM ATP, 100 µM F6P (acid treated and then neutralized to remove any contaminating F-2,6-P2[34]), 0.005% Tween-20 and 1 mM dithiothreitol. Enzyme, compounds, and controls were pre-incubated at room temperature for 15 min before the addition of substrate solution. The enzymatic reaction was allowed to proceed for 20 min and the reaction was terminated by the addition of ADP-GloTM Reagent (10 µL) to all wells followed by 40 min incubation at room temperature. […] The inhibitory potency or IC50 values of test compounds on the kinase activity of the enzymes were calculated using a four-parameter model (model 205) in XLfit (IDBS ActivityBase XE Runner).

[1] = test system: intracellular F-2,6-P2 levels; assay: Intracellular F-2,6-P2 quantification (van Schaftingen assay); type: cell-based; conditions: pancreatic, gastric and colon cancer cell lines
Method: Quantification of F-2,6-P2 was performed as described by Van Schaftingen et al.[34]. The assay is based on the potent activation of pyrophosphate-dependent phosphofructokinase-1 (PPi-PFK) from potato tubers by F-2,6-P2. The use of a series of coupled enzymes leads to a consumption of nicotinamide adenine dinucleotide (NADH) that can be followed spectrophotometrically. PANC-1, NUGC-3, SW620, or MIA PaCa-2 cells were seeded at a density of 2.5 × 10^4–3.5 × 10^4 cells per well (96-well, CLS3595, Sigma-Aldrich) and incubated overnight at 37 °C and 5% CO2. […] Plates stored at −20 °C were thawed and the F-2,6-P2 quantification was initiated by transferring 40 µL from each well of the NUNC plate to the corresponding position in a transparent 96-well SpectraPlate-MB (PerkinElmer). In order to ensure that all F-2,6-P2 measured values were within the linear range of response (between 0 and 1 nM final concentration of F-2,6-P2[34]), the same sample volume of an in-house produced F-2,6-P2 standard was included on each plate. […] The coupled enzymatic reaction was allowed to proceed for 45 min at room temperature and the absorbance at 340 nm was continuously measured every 30 s (SpectraMax plate reader, Molecular Devices). The measured absorbance was proportional to the concentration of NADH, which in turn was proportional to the levels of F-2,6-P2 within the linear range. […]

[2] = test system: 97 kinases of the scanEDGE set; assay: DiscoveRx KINOMEscan scanEDGE panel; type: binding; conditions: 2 µM

PFKFB3, sequence (Q16875 whole entry): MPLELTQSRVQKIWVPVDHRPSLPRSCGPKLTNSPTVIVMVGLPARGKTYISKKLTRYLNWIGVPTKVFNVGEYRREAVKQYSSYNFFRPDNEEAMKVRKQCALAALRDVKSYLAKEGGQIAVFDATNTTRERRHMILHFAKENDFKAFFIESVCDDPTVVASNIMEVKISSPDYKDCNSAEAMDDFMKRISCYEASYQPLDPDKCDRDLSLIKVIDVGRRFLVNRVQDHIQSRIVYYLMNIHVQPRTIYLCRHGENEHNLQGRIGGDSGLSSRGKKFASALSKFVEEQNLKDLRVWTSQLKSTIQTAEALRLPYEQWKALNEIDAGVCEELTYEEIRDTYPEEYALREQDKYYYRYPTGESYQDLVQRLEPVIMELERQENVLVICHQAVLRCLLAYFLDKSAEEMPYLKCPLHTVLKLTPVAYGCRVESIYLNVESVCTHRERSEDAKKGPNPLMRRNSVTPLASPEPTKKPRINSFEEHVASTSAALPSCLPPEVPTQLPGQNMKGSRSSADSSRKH

Structure (SMILES): O=C(O)c1ccc(NS(=O)(=O)c2cccc(-c3cc(F)ccc3O)c2)cc1O [KAN0438241, 4-{[(5′-Fluoro-2′-hydroxybiphenyl-3-yl)sulfonyl]amino}-2-hydroxybenzoic acid]
- IC50 (PFKFB3; ADP-GLO assay): 190 nM
- potency on intracellular F-2,6-P2 levels (in words) [1]: low µM potency
- binding to the 97 targets of the scanEDGE set [2]: no significant binding

Structure (SMILES): O=C(OCCO)c1ccc(NS(=O)(=O)c2cccc(-c3cc(F)ccc3O)c2)cc1O [KAN0438757, 2-Hydroxyethyl-4-{[(5′-fluoro-2′-hydroxybiphenyl-3-yl)sulfonyl]amino}-2-hydroxybenzoate]
- inhibition of recombinant PFKFB3 kinase activity (in words) (PFKFB3; in vitro enzymatic assay): largely inactive
- potency on intracellular F-2,6-P2 levels (in words) [1]: sub-µM IC50 values
- binding to the 97 targets of the scanEDGE set [2]: no significant binding
